The source of these data is ChEMBL document CHEMBL3431459, “Roche carnitine palmitoyltransferase modulator screening data (supplementary data associated with the publication CHEMBL2216752)”.

Data set [1] in a line: SUPPLEMENTARY: Lyophilisation Solubility Assay (LYSA). The class given is physicochemical. Particulars: read-out: Kinetic_solubility.
For data set [2], the target named is T1, Carnitine O-palmitoyltransferase 1, liver isoform (Rattus norvegicus, UniProt P32198).
T1 sequence (P32198 whole entry): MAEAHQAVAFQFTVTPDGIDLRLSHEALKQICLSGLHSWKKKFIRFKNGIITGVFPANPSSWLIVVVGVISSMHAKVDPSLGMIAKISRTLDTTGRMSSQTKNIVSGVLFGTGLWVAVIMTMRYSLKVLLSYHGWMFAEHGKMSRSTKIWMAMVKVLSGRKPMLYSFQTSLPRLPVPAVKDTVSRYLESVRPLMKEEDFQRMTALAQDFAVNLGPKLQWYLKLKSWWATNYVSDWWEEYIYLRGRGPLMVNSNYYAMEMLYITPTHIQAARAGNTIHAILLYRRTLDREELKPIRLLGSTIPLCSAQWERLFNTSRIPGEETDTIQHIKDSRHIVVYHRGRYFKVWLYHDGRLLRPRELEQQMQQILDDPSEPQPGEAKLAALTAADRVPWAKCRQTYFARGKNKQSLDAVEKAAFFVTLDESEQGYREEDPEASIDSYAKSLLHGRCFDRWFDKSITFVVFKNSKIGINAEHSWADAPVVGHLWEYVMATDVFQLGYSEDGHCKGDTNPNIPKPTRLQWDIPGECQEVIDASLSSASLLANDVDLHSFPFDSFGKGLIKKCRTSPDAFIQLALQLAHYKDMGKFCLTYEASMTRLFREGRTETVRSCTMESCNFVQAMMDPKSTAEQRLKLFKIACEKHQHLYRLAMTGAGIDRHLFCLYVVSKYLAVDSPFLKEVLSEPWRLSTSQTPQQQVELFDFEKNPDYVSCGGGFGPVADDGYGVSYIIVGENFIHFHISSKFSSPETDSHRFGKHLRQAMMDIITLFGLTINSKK
Description: (§1) SUPPLEMENTARY: Inhibition of Carnitine palmitoyltransferase 1, liver isoform.

In data set [3] the target is T2, Carnitine O-palmitoyltransferase 1, liver isoform (Homo sapiens, UniProt P50416).
T2 sequence (P50416 whole entry): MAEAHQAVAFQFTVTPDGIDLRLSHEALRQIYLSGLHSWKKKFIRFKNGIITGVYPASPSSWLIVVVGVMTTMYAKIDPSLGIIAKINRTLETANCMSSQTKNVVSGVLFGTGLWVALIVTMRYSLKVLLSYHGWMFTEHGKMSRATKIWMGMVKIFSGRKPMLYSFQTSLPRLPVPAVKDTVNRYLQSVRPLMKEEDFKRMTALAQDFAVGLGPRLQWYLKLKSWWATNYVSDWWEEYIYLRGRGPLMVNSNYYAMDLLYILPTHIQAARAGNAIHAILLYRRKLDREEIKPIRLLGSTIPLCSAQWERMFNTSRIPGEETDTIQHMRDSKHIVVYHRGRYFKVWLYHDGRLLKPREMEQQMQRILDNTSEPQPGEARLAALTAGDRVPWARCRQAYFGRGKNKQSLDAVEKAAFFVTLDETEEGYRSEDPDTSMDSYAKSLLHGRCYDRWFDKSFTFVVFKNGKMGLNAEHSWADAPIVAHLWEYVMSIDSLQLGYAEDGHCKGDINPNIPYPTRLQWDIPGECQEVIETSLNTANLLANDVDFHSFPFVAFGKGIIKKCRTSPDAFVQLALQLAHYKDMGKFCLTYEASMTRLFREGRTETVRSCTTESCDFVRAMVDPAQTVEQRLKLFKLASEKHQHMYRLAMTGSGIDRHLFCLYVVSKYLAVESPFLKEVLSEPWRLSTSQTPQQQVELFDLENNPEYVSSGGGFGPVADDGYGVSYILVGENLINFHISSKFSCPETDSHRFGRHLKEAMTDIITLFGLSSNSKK
The data set is described as §1.

A short description of data set [4]: SUPPLEMENTARY: PAMPA permeability assay. It is filed as physicochemical. The settings on record: read-out: Permeability. On the technique in general: In PAMPA a lipid-coated filter parts donor from acceptor wells.
Data set [5] deals with T3, Carnitine O-palmitoyltransferase 1, muscle isoform (Homo sapiens, UniProt Q92523).
T3 sequence (Q92523 whole entry): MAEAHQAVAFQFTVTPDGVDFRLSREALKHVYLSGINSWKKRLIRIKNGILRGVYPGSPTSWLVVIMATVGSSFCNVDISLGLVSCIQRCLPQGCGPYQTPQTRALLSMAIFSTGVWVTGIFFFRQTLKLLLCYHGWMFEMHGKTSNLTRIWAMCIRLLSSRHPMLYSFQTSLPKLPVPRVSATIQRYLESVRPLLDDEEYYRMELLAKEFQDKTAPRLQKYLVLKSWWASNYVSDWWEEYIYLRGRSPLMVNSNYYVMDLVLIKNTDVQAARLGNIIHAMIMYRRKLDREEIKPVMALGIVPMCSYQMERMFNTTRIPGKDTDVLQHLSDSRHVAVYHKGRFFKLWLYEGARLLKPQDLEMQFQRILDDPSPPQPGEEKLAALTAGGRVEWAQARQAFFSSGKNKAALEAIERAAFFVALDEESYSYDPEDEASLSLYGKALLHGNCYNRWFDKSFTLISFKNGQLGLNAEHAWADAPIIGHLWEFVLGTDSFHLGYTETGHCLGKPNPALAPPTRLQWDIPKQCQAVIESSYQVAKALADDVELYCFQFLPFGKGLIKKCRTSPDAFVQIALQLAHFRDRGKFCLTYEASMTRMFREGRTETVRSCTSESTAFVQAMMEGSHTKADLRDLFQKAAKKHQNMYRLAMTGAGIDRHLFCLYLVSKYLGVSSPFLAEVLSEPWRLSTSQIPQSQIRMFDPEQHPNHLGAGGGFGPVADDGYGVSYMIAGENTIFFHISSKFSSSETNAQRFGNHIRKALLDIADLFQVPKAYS
Description: SUPPLEMENTARY: Inhibition of Carnitine palmitoyltransferase 1, muscle isoform. Also noted: species or system Muscle tissue.

The nature of data set [6]: SUPPLEMENTARY: Lipophilicity (log D) Determination by high-throughput shake-flask. Particulars: octanol/water. It is filed as physicochemical.
Data set [7] has as its target T4, Carnitine O-palmitoyltransferase 2, mitochondrial (Rattus norvegicus, UniProt P18886).
T4 sequence (P18886 whole entry): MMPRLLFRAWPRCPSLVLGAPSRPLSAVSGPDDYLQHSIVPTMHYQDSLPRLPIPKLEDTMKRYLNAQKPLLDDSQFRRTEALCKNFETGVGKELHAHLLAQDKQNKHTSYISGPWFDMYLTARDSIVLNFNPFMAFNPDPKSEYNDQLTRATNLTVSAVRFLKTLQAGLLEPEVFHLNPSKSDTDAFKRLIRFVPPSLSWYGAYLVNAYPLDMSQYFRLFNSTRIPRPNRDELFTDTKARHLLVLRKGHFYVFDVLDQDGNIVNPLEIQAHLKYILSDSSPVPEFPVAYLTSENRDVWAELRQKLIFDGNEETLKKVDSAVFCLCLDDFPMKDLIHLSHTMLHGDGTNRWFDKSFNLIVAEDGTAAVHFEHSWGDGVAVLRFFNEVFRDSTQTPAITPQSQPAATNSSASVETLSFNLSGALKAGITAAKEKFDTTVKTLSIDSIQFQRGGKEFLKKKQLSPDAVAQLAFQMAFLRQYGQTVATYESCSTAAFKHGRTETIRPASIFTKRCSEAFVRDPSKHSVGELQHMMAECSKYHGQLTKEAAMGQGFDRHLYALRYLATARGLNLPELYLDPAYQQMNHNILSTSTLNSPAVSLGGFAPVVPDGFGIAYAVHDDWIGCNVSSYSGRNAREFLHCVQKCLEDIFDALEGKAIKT
Nature of the data set: (§2) SUPPLEMENTARY: Inhibition of Carnitine palmitoyltransferase 2.

The target in data set [8] is T5, Carnitine O-palmitoyltransferase 2, mitochondrial (Homo sapiens, UniProt P23786).
T5 sequence (P23786 whole entry): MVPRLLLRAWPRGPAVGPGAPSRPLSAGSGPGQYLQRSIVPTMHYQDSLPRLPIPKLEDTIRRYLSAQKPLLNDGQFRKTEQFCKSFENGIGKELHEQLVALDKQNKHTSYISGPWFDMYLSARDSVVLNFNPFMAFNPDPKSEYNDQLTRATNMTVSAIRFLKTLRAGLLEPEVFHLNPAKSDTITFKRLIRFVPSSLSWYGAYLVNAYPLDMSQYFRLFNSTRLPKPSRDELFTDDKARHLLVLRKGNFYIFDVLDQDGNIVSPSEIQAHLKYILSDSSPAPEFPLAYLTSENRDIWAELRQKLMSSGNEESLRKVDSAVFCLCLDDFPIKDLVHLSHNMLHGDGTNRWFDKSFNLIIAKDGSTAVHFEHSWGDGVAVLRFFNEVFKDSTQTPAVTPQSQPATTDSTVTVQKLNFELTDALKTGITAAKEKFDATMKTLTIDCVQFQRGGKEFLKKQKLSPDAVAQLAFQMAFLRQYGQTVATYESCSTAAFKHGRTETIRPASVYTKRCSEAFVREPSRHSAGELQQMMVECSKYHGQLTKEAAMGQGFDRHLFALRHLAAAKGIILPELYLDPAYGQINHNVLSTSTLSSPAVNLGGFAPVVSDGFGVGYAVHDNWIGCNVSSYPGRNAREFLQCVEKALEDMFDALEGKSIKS
The data set is described as §2.

Molecules are shown by their SMILES. In brackets after ≈: the same amount, converted by molar mass.

For the compound `O=C1CCCN1c1cccc(-c2noc([C@H]3CCCCN3C(=O)COc3ccccc3)n2)c1`, in data set [1], the solubility kinetic is below 1 µg/mL. Also, the IC50 in data set [2] is 0.0621 µM; in data set [3], 0.0888 µM; in data set [5], above 100 µM; in data set [7], above 100 µM; in data set [8], above 100 µM. In addition, the Papp in data set [4] amounted to 3.86 ×10⁻⁶ cm/s. For the same compound, the pH-dependent lipophilicity (logD) in data set [6] was 3.09.

`O=C1CN(c2cccc(-c3noc([C@H]4CCCCN4C(=O)COc4ccccc4)n3)c2)C(=O)N1`: in data set [1], the solubility kinetic came to 14 µg/mL (≈ 30.3 µM). The IC50 is 0.103 µM in data set [2]; 0.0506 µM in data set [3]; above 100 µM in data set [5]; above 100 µM in data set [7]; 50.6 µM in data set [8]. For the same compound, the Papp in data set [4] worked out at 3.82 ×10⁻⁶ cm/s. Besides, in data set [6], the logD is 2.62.

For the compound `O=C(COc1ccccc1)N1CCCC[C@@H]1c1nc(-c2cccc(-n3cn[nH]c3=O)c2)no1`, the solubility kinetic in data set [1] is 40 µg/mL (≈ 89.6 µM). The IC50 was 0.456 µM in data set [2]; 0.0963 µM in data set [3]; above 100 µM in data set [5]; above 100 µM in data set [7]; 51.5 µM in data set [8]. The Papp in data set [4] was 4.87 ×10⁻⁶ cm/s. Moreover, the logD in data set [6] was 2.42.

In the case of `O=C(COc1ccccc1)N1CCC(n2c(COc3ccccc3)nc3cc(F)ccc32)CC1`, in data set [1], the solubility kinetic is below 1 µg/mL. Besides, the IC50 in data set [2] was above 10 µM; in data set [3], 44.4 µM; in data set [5], above 100 µM; in data set [7], above 100 µM; in data set [8] it was above 100 µM. In addition, the Papp in data set [4] amounted to 2.27 ×10⁻⁶ cm/s. Moreover, the logD in data set [6] amounted to 3.95.

For the compound `COc1ccc(Cl)cc1S(=O)(=O)N1CCS(=O)(=O)c2ccc(C(=O)Nc3ccc(C(=O)O)c(F)c3)cc21`, the solubility kinetic in data set [1] was 13 µg/mL (≈ 22.8 µM). For the same compound, the IC50 in data set [2] worked out at 0.0613 µM; in data set [3] it was 0.102 µM; in data set [5], 1.74 µM; in data set [7], 37.4 µM; in data set [8] it was 4.45 µM. The Papp in data set [4] is 0.21 ×10⁻⁶ cm/s. The logD in data set [6] was -0.27.

In the case of `COc1ccc(Cl)cc1S(=O)(=O)N1CCSc2ccc(C(=O)Nc3ccc(C(=O)O)c(F)c3)cc21`, in data set [1], the solubility kinetic was 7 µg/mL (≈ 13 µM). Besides, the IC50 in data set [2] is 0.0705 µM; in data set [3], 0.084 µM; in data set [5], 0.4 µM; in data set [7] it was 9.04 µM; in data set [8] it was 1.99 µM. In data set [4], the Papp was 2.57 ×10⁻⁶ cm/s. Further, the logD in data set [6] was 2.6.

Turning to `COc1ccc(Cl)cc1S(=O)(=O)N1CCS(=O)(=O)c2ccc(C(=O)Nc3ccc(C(=O)O)c(Cl)c3)cc21`, the solubility kinetic in data set [1] was 45 µg/mL (≈ 76.9 µM). For the same compound, the IC50 in data set [2] stood at 0.103 µM; in data set [3] it was 0.204 µM; in data set [5] it was 8.03 µM; in data set [7], 15.7 µM; in data set [8], 5.56 µM. Further, the Papp in data set [4] is 0.06 ×10⁻⁶ cm/s. In data set [6], the logD is -0.37.

Regarding `CC(=O)Nc1ccc(-c2noc([C@H]3CCCCN3C(=O)C#Cc3ccccc3)n2)cc1C(F)(F)F`, in data set [1], the solubility kinetic came to 1 µg/mL (≈ 2.07 µM). The IC50 in data set [2] was 7.98 µM; in data set [3] it was 0.26 µM; in data set [5], above 100 µM; in data set [7], above 100 µM; in data set [8], above 100 µM. Besides, in data set [4], the Papp turned out to be 1.5 ×10⁻⁶ cm/s. Also, the logD in data set [6] was above 3.

`CN(C)C(=O)CCC(=O)Nc1cc(F)cc(-c2noc([C@H]3CCCCN3C(=O)COc3ccccc3)n2)c1`: the solubility kinetic in data set [1] was below 1 µg/mL. Also, the IC50 is 0.253 µM in data set [2]; 0.111 µM in data set [3]; above 100 µM in data set [5]; above 100 µM in data set [7]; 14.1 µM in data set [8]. Further, the Papp in data set [4] is 0.83 ×10⁻⁶ cm/s. The compound also came in with a logD in data set [6] of 3.16.

Consider `COc1ccc(Cl)cc1Cn1cc(C(=O)O)c2ccc(C(=O)Nc3ccccc3)cc21`, for which the solubility kinetic in data set [1] is below 1 µg/mL. The IC50 in data set [2] was 0.104 µM; in data set [3], 0.0996 µM; in data set [5] it was above 100 µM; in data set [7], above 100 µM; in data set [8], above 100 µM. Also, the Papp in data set [4] was 0.53 ×10⁻⁶ cm/s. In data set [6], the logD was determined as 3.13.

The term IC50 denotes the concentration that gives 50% inhibition. A higher IC50 goes with lower potency. The term logD denotes lipophilicity at a set pH, counting ionised and neutral species. Higher therefore signals higher lipophilicity.
